According to patent publication US20030199671A1, “Binding molecules for Fc-region polypeptides” (priority 2001, published 2003):
Positions of bridges follow the written chain, without caps; N, C: chain ends. Residues, ends and D or L forms follow the SMILES beside them.

How the values were obtained:
human IgG1 [1] = target: T1, human IgG1 (Homo sapiens, UniProt P01857); assay: Column capture out of tobacco extract; format: binding; conditions: from tobacco extract, size exclusion HPLC
T1 construct: all human subtypes derived from myeloma patients; purchased Calbiochem 400120; host or cells: myeloma patients
Experimental: The ability of affinity media based on DX253 to capture human Fc and human IgG1 out of tobacco extract was evaluated in separate experiments. The tobacco extract used was a representative concentration blank lot (CropTech, lot NV100-136). Human Fc or IgG1 was spiked into the tobacco extract at 50 μg/ml. 100 μg (2 ml) was loaded onto a 350 μl column packed the DX253 media at 200 μl/min. (170 cm/hr.). Prior to loading, the column had been equilibrated with 50 mM Tris buffer containing 150 mM NaCl and 0.01% Tween 20, pH 7.3 (TBST, pH 7.3). After loading, the column was washed with 50 mM Tris buffer containing 1M NaCl, pH 7.3 followed by elution with 30 mM H3PO4, 150 mM NaCl, pH 2.0. The column was then cleaned with 0.1 M CAPS, pH 11.5 and separately with 30% isopropanol, 5% acetic acid in water, ˜pH 2.7. Collected fractions were neutralized immediately with 2M Tris, pH 8, prior to analysis by size exclusion HPLC.

human IgG = assay: DX253 column cycling with IgG spiked cell culture media
Experimental: DX253 peptide was immobilized onto NHS-activated 4 Fast Flow to a ligand density of 2.9 μmole/ml as determined by quantitative amino acid analysis. This affinity resin was packed into a 4.6 mm×6 cm (internal diam.×length, 1.0 ml bed volume) PEEK column (Isolation Technologies, Inc., 5050IP-08046-006-20).
Human IgG was spiked into fresh cell culture media (DMEM) containing 10% fetal bovine serum (ultra low) to 0.5 mg/ml. 2 ml (1.0 mg IgG) was loaded onto the column which was pre-equilibrated with PBS, pH 7.2. Loading was performed at 0.21 ml/minute (75 cm/hour) and all subsequent steps (wash, elution and cleaning) were performed at 0.42 ml/minute (150 cm/hour). Unbound sample was washed to baseline with PBS, pH 7.2, followed by elution with 0.1M citrate, pH 3.0, wash with PBS, pH 7.2, cleaning with 3M guanidine-HCl, 20 mM phosphate, pH 7.2 and re-equilibration back into PBS, pH 7.2. A total of 19 series of 5 cycles each (95 cycles total) were run. […] This procedure was used for cycles 1-25, 27-65, 67-85, and 87-95.

hIgG1 = target: T2, hIgG1 (Homo sapiens, UniProt P01857); assay: Mini-chromatography column binding (dynamic conditions); conditions: 350 μl column, human IgG1 spiked into PBST, pH 7.2
T2 construct: purchased Calbiochem 400120; host or cells: human myeloma patients
Experimental: Thus, 250 μg of target (hIgG1, hIgG2, hIgG3, hIgG4, goat IgG and bovine IgG) at 0.250 mg/ml in PBST, pH 7.2 or TBST, pH 7.3 was loaded onto a 350 μl column (3×50 mm) run at 0.200 ml/min. flowrate (170 cm/hr). Flowthrough, elution and cleaning fractions were collected and assayed for total protein recovery by size-exclusion HPLC. Percentage mass balance was also determined to be 90-100% on average.
For these experiments, 350 μl columns (3×50 mm) were packed with each media. The columns were tested with human Fc fragments or human IgG1 (Calbiochem, 401104 and 400120 respectively) spiked into PBST, pH 7.2 at a concentration of 0.5 g/l. 65 μg of Fc was loaded onto each column. After loading, the columns were washed with PBST, pH 7.2, eluted with 30 mM H3PO4, 150 mM NaCl, pH 2.0 and cleaned with 0.1M CAPS, pH 11.5 buffer (3-[Cyclohexylamino]-1-propane-sulfonic acid). Fractions collected were immediately neutralized to pH ˜7.2 with 2.0 M Tris, pH 8.0. All column operations were conducted at 200 μl/min (170 cm/hr).

IgG4 = IgG4 (Homo sapiens, UniProt P01861); assay: Competition between synthetic peptides and Protein A for Fc binding; parameters: the individual human plasma IgG isoforms: IgG1, IgG2, IgG3, or IgG4; purchased Calbiochem; host or cells: human plasma; key: NB: no detected binding.; ?: partial decrease in anisotropy with added competitor; conditions: 5 mg/ml protein A
Experimental: Cross-competition studies between peptides were performed using 20 nM fluorescein-labeled peptide and 1-2 μM IgG1, IgG2, IgG3, or IgG4 in the presence and absence of a maximum of 100 μM unlabeled peptide or 5 mg/ml protein A.
This is consistent with the fact that Protein A is known not to bind human IgG3.

human IgG1 [2] = target: T1, human IgG1; assay: Column capture from conditioned CHO cell culture supernatant containing 5% fetal bovine serum; format: binding; conditions: SEC-HPLC; load 93% monomer
Experimental: Human IgG1 (93% monomer) was spiked into conditioned CHO media to 50 μg/ml and 5 ml (250 μg total) was loaded onto a 350 μl mini-column as described above. The column was washed to baseline with PBST, pH 7.2 and the flowthrough fraction collected. Bound IgG was eluted with 0.1M sodium bicarbonate buffer, pH 9.0, and the column cleaned with 0.1M CAPS, pH 11.5. The eluted and clean fractions were quickly neutralized to ˜pH 7.2 and assayed for mass recovery by SEC-HPLC. Thus, an 80% recovery (98% monomer) was obtained in the eluted fraction. The column load, flowtbrough, elution and cleaning fractions were further analyzed by electrophoresis (SDS-PAGE), Coomassie stain and Western analysis for the presence of human and bovine IgG.

Ac-GDRRACSRDWSGALVWCAGHEPGPEGGGK-NH2 (not fully specified (bridges); printed as Ac-GDRRACSRDWSGALVWCAGHEPGPEGGGK-NH2; cysteine pairing not given here) [DX253]
% purity monomeric protein, IgG1 (human IgG1 [1]): 89%
% Relative Performance (elution peak area vs cycle 1) (human IgG; Cycling Run No. 1, cycling run 1): 100%
% Relative Performance (elution peak area vs cycle 1) (human IgG; Cycling Run No. 10, cycling run 10): 97.6%
% Relative Performance (elution peak area vs cycle 1) (human IgG; Cycling Run No. 20, cycling run 20): 97.9%
% Relative Performance (elution peak area vs cycle 1) (human IgG; Cycling Run No. 30, cycling run 30): 102.3%
% Relative Performance (elution peak area vs cycle 1) (human IgG; Cycling Run No. 40, cycling run 40): 103.1%
% Relative Performance (elution peak area vs cycle 1) (human IgG; Cycling Run No. 51, cycling run 51): 102.0%
% Relative Performance (elution peak area vs cycle 1) (human IgG; Cycling Run No. 60, cycling run 60): 103.1%
% Relative Performance (elution peak area vs cycle 1) (human IgG; Cycling Run No. 70, cycling run 70): 102.6%
% Relative Performance (elution peak area vs cycle 1) (human IgG; Cycling Run No. 81, cycling run 81): 102.1%
% Relative Performance (elution peak area vs cycle 1) (human IgG; Cycling Run No. 90, cycling run 90): 101.8%

CC(=O)NCC(=O)N[C@@H](CC(=O)O)C(=O)N[C@@H](CC(=O)O)C(=O)N[C@@H](CC(=O)O)C(=O)N[C@@H](Cc1c[nH]cn1)C(=O)N[C@H]1CSSC[C@@H](C(=O)N2CCC[C@H]2C(=O)N[C@@H](Cc2c[nH]cn2)C(=O)NCC(=O)N[C@@H](CCC(=O)O)C(=O)N2CCC[C@H]2C(=O)NCC(=O)N2CCC[C@H]2C(=O)N[C@@H](CCC(=O)O)C(=O)NCC(=O)NCC(=O)NCC(=O)N[C@@H](CCCCN)C(N)=O)NC(=O)[C@H](CCC(=O)O)NC(=O)[C@H](CO)NC(=O)[C@H](CC(N)=O)NC(=O)[C@H](Cc2ccccc2)NC(=O)[C@H](Cc2c[nH]c3ccccc23)NC(=O)[C@H](CCC(=O)O)NC(=O)[C@H](CCCNC(=N)N)NC(=O)[C@H](Cc2ccccc2)NC(=O)[C@H](Cc2c[nH]c3ccccc23)NC(=O)[C@H](Cc2ccc(O)cc2)NC1=O [DX252] (Ac-GDDDHCYWFREWFNSECPHGEPGPEGGGK-NH2; disulfide 6-17 (inferred))
Capture efficiency, IgG1 (hIgG1): 80%
Competition between labeled peptide and Protein A, IgG4 (IgG4): NB

CC[C@H](C)[C@@H]1NC(=O)[C@H](CC(C)C)NC(=O)[C@H](CCC(=O)O)NC(=O)CNC(=O)[C@H](Cc2c[nH]c3ccccc23)NC(=O)[C@H]([C@@H](C)O)NC(=O)[C@H]([C@@H](C)O)NC(=O)[C@H](Cc2ccc(O)cc2)NC(=O)[C@H](C(C)C)NC(=O)[C@@H](NC(=O)[C@H](CCSC)NC(=O)[C@H](Cc2c[nH]cn2)NC(=O)[C@H](CC(=O)O)NC(=O)[C@H](CC(=O)O)NC(=O)CNC(C)=O)CSSC[C@@H](C(=O)N[C@@H](CC(=O)O)C(=O)N[C@@H](CC(N)=O)C(=O)N[C@@H](Cc2c[nH]cn2)C(=O)N[C@@H](CCC(=O)O)C(=O)N2CCC[C@H]2C(=O)NCC(=O)N2CCC[C@H]2C(=O)N[C@@H](CCC(=O)O)C(=O)NCC(=O)NCC(=O)NCC(=O)N[C@@H](CCCCN)C(N)=O)NC(=O)[C@H](Cc2c[nH]c3ccccc23)NC1=O [DX249] (Ac-GDDHMCVYTTWGELIWCDNHEPGPEGGGK-NH2; disulfide 6-17)
Monomer in the eluted fraction (human IgG1 [2]): 98%
